Measurements from US9421204B2, “Oligomer modified diaromatic substituted compounds” (priority 2010, dated 2016).
“And” between values parts separate entries of the source, which are not always exact repeats. Identical values can stand only once. Like-named read-outs stand apart in the source and are kept apart here.

Legend:
[1] = Toxicity XTT in CEM-SS cells (cytoprotection assay); format: cell-based; conditions: human, CEM-SS cells, XTT; read-out: CEM-SS TC50
Protocol: (§1) Cell Preparation—CEM-SS cells were passaged in T-75 flasks prior to use in the antiviral assay. On the day preceding the assay, the cells were split 1:2 to assure they were in an exponential growth phase at the time of infection. Total cell and viability quantification was performed using a hemocytometer and Trypan Blue dye exclusion. Cell viability was greater than 95% for the cells to be utilized in the assay. The cells were resuspended at 5×10^4 cells per ml in tissue culture medium and added to the drug containing microtiter plates in a volume of 50 μL.
(§2) Plate Format—Each plate contains cell control wells (cells only), virus control wells (cells plus virus), drug toxicity wells (cells plus drug only), drug colorimetric control wells (drug only) as well as experimental wells (drug plus cells plus virus). Samples were tested in triplicate with eleven half-log dilutions per compound.
(§3) Efficacy and Toxicity XTT—Following incubation at 37° C. in a 5% CO2 incubator, the test plates were stained with the tetrazolium dye XTT (2,3-bis(2-methoxy-4-nitro-5-sulfophenyl)-5-[(phenylamino)carbonyl]-2H-tetrazolium hydroxide). XTT-tetrazolium is metabolized by the mitochondrial enzymes of metabolically active cells to a soluble formazan product, allowing rapid quantitative analysis of the inhibition of HIV induced cell killing by anti-HIV test substances. XTT solution was prepared daily as a stock of 1 mg/mL in RPMI1640. Phenazine methosulfate (PMS) solution was prepared at 0.15 mg/mL in PBS and stored in the dark at −20° C. XTT/PMS stock was prepared immediately before use by adding 40 μL of PMS per ml of XTT solution. Fifty microliters of XTT/PMS was added to each well of the plate and the plate was re-incubated for 4 hours at 37° C. Plates were sealed with adhesive plate sealers and shaken gently or inverted several times to mix the soluble fosmazan product and the plate was read spectrophotometrically at 450/650 nm with a Molecular Devices Vmax plate reader.
(§4) Data Analysis—Raw data was collected from the Softmax Pro 4.6 software and imported into a Excel XLFit4 spreadsheet for analysis by four parameter curve fit calculations. Both antiviral activity and toxicity are calculated.

NL4-3L100I = experiment: Anti-HIV cytoprotection assay, drug resistant NL4-3 L100I; format: cell-based; conditions: HIV-1 strain NL4-3L100I, CEM-SS cells
Protocol: (§5) Cells were prepared as described above. Virus Preparation—The wild type NL4-3 and drug resistant A17 viruses were obtained from the NIH AIDS Research and Reference Reagent Program and stock virus pools were produced in CEM-SS cells. Amino acid substitutes of L100I, Y181C and P23L were introduced by site-directed mutagenesis into pN L4-3 and stock virus pools were produced in CEM-SS cells. A pretitered aliquot of virus was removed from the freezer (−80° C.) and allowed to thaw slowly to room temperature in a biological safety cabinet. Virus was re-suspended and diluted into tissue culture medium such that the amount of virus added to each well in a volume of 50 μL was the amount determined to yield 85 to 95% cell killing at 6 days post-infection.
as §3, with “Plate Format—Each plate contains cell control wells (cells only), virus control wells (cells plus virus), drug toxicity wells (cells plus drug only), drug colorimetric control wells (drug only) as well as experimental wells (drug plus cells plus virus). Samples were tested in triplicate with eleven half-log dilutions per compound. Efficacy” for “Efficacy”, “XTT-tetrazolium was” for “XTT-tetrazolium is”, “C. XTTIPMS” for “C. XTT/PMS”, “soluble formazan” for “soluble fosmazan”
as §4

[2] = Toxicity XTT in CEM-SS cells (drug resistant strain assay); format: cell-based; conditions: human, CEM-SS cells, read-out: TC50 (the source's name)
Protocol: as §5
as §3, with “Plate Format—Each plate contains cell control wells (cells only), virus control wells (cells plus virus), drug toxicity wells (cells plus drug only), drug colorimetric control wells (drug only) as well as experimental wells (drug plus cells plus virus). Samples were tested in triplicate with eleven half-log dilutions per compound. Efficacy” for “Efficacy”, “XTT-tetrazolium was” for “XTT-tetrazolium is”, “C. XTTIPMS” for “C. XTT/PMS”, “soluble formazan” for “soluble fosmazan”
as §4

HIV-1RF = experiment: Anti-HIV-1 cytoprotection assay in CEM-SS cells; format: cell-based
Protocol: as §1, with “Cell viability was greater than 95% for the cells to be utilized in the assay.” left out
Virus Preparation—The virus used for the assay was the lymphocyte-tropic virus strain HIV-IRF. The virus was obtained from the NIH AIDS Research and Reference Reagent Program and stock virus pools were produced in CEM-SS cells. A pretitred aliquot of virus was removed from the freezer (−80° C.) and allowed to thaw slowly to room temperature in a biological safety cabinet.
as §2, §3
Anti-HIV-1 Cytopathic Effects Inhibition Assay Evaluations: Eight compounds were evaluated against the RF strain of HIV-1 in CEM-SS cells using a 12 concentration dose response curve.
as §4

A17K103N/Y181C = experiment: Anti-HIV cytoprotection assay, drug resistant A17; format: cell-based; conditions: HIV-1 strain A17K103N/Y181C, CEM-SS cells
Protocol: as §5, with “cabinet.” for “cabinet. Virus was re-suspended and diluted into tissue culture medium such that the amount of virus added to each well in a volume of 50 μL was the amount determined to yield 85 to 95% cell killing at 6 days post-infection.”
as §3, with “Plate Format—Each plate contains cell control wells (cells only), virus control wells (cells plus virus), drug toxicity wells (cells plus drug only), drug colorimetric control wells (drug only) as well as experimental wells (drug plus cells plus virus). Samples were tested in triplicate with eleven half-log dilutions per compound. Efficacy” for “Efficacy”, “XTT-tetrazolium was” for “XTT-tetrazolium is”, “C. XTTIPMS” for “C. XTT/PMS”, “soluble formazan” for “soluble fosmazan”
as §4

NL4-3Y181C = experiment: Anti-HIV cytoprotection assay, drug resistant NL4-3 Y181C; format: cell-based; conditions: HIV-1 strain NL4-3Y181C; for EC50: CEM-SS cells
Protocol: as §5
as §3, with “Plate Format—Each plate contains cell control wells (cells only), virus control wells (cells plus virus), drug toxicity wells (cells plus drug only), drug colorimetric control wells (drug only) as well as experimental wells (drug plus cells plus virus). Samples were tested in triplicate with eleven half-log dilutions per compound. Efficacy” for “Efficacy”, “XTT-tetrazolium was” for “XTT-tetrazolium is”, “C. XTTIPMS” for “C. XTT/PMS”, “soluble formazan” for “soluble fosmazan”
as §4

NL4-3P236L = experiment: Anti-HIV cytoprotection assay, drug resistant NL4-3 P236L; format: cell-based; conditions: HIV-1 strain NL4-3P236L; for EC50: CEM-SS cells
Protocol: as §5
as §3, with “Plate Format—Each plate contains cell control wells (cells only), virus control wells (cells plus virus), drug toxicity wells (cells plus drug only), drug colorimetric control wells (drug only) as well as experimental wells (drug plus cells plus virus). Samples were tested in triplicate with eleven half-log dilutions per compound. Efficacy” for “Efficacy”, “XTT-tetrazolium was” for “XTT-tetrazolium is”, “C. XTTIPMS” for “C. XTT/PMS”, “soluble formazan” for “soluble fosmazan”
as §4

CEM-SS cells = experiment: Toxicity XTT in CEM-SS cells (drug resistant strain assay); format: cell-based; conditions: read-out: TC50 (the source's name)
Protocol: as §5
as §3, with “Plate Format—Each plate contains cell control wells (cells only), virus control wells (cells plus virus), drug toxicity wells (cells plus drug only), drug colorimetric control wells (drug only) as well as experimental wells (drug plus cells plus virus). Samples were tested in triplicate with eleven half-log dilutions per compound. Efficacy” for “Efficacy”, “XTT-tetrazolium was” for “XTT-tetrazolium is”, “C. XTTIPMS” for “C. XTT/PMS”, “soluble formazan” for “soluble fosmazan”
as §4

NL4-3 = experiment: Anti-HIV cytoprotection assay, wild type NL4-3; format: cell-based, HIV-1; conditions: for EC50: HIV-1 strain NL4-3, CEM-SS cells, read-out: EC50
Protocol: as §5, with “cabinet.” for “cabinet. Virus was re-suspended and diluted into tissue culture medium such that the amount of virus added to each well in a volume of 50 μL was the amount determined to yield 85 to 95% cell killing at 6 days post-infection.”
as §3, with “Plate Format—Each plate contains cell control wells (cells only), virus control wells (cells plus virus), drug toxicity wells (cells plus drug only), drug colorimetric control wells (drug only) as well as experimental wells (drug plus cells plus virus). Samples were tested in triplicate with eleven half-log dilutions per compound. Efficacy” for “Efficacy”, “XTT-tetrazolium was” for “XTT-tetrazolium is”, “C. XTTIPMS” for “C. XTT/PMS”, “soluble formazan” for “soluble fosmazan”
as §4

[3] = Human immunodeficiency virus 1, CEM-SS
[4] = run with HIV-1 strain A17K103N/Y181C
[5] = run with HIV-1 strain NL4-3L100I
[6] = run with HIV-1 strain NL4-3P236L
[7] = run with HIV-1 strain NL4-3Y181C

Cc1cn([C@H]2C[C@H](N=[N+]=[N-])[C@@H](CO)O2)c(=O)[nH]c1=O [AZT, reference compound]
CC50 [1]: > 1000 nM
EC50 (NL4-3L100I): 6 nM
EC50 (NL4-3L100I; [3]): 3 nM
CC50 [2, 4]: > 500 nM
EC50 (HIV-1RF; CEM-SS cells, XTT, read-out: CEM-SS/HIV-1RF EC50): 10 nM
EC50 (HIV-1RF; Human immunodeficiency virus 1, CEM-SS, CEM-SS cells, XTT, read-out: CEM-SS/HIV-1RF EC50): 6 nM
EC50 (HIV-1RF; Human immunodeficiency virus 1, CEM-SS, RF strain of HIV-1 in CEM-SS cells, control compound, read-out: EC50): 6 nM
EC50 (A17K103N/Y181C; [3]): 3 nM
EC50 (NL4-3Y181C): 1 nM
EC50 (NL4-3Y181C; [3]): 2 nM
TI (NL4-3P236L): >71.4 and >50.0

CC(C)Nc1cccnc1N1CCN(C(=O)c2cc3cc(NS(C)(=O)=O)ccc3[nH]2)CC1 [Delavirdine, N-[2-({4-[3-(propan-2-ylamino)pyridin-2-yl]piperazin-1-yl}carbonyl)-1H-indol-5-yl]methanesulfonamide, reference compound]
CC50 [2, 4]: > 500 nM
CC50 ([2]; run with HIV-1 strain NL4-3): > 500 nM
CC50 [2, 5]: > 500 nM
CC50 [2, 6]: > 500 nM
CC50 [2, 7]: > 500 nM
CC50 (CEM-SS cells; [4]): > 1000 nM
CC50 (CEM-SS cells; run with HIV-1 strain NL4-3): > 1000 nM
CC50 (CEM-SS cells; [5]): > 1000 nM
CC50 (CEM-SS cells; [6]): > 1000 nM
CC50 (CEM-SS cells; [7]): > 1000 nM
TI (NL4-3; HIV-1 strain NL4-3): >100.0
EC50 (NL4-3): 10 nM
EC50 (NL4-3; Human immunodeficiency virus 1, NL43, CEM-SS): 5 nM
EC50 (A17K103N/Y181C): > 1000 nM
EC50 (A17K103N/Y181C; [3]): > 500 nM
TI (NL4-3Y181C): >1.7
EC50 (NL4-3Y181C): 580 nM
EC50 (NL4-3Y181C; [3]): > 500 nM
TI (NL4-3P236L): >2.0
EC50 (NL4-3P236L): 500 nM
EC50 (NL4-3P236L; [3]): > 500 nM
